Results on 3 molecules are retold here after patent publication US12187752B2, “Solid forms and combination compositions comprising a beta-lactamase inhibitor and uses thereof” (priority 2017, dated 2025).

Where two headings read alike, the source gives them in different places. A value given as a limit tells only on which side of the number the result lay.

Data set [1] is described as follows: Dynamic vapor sorption analysis. The settings on record: 25° C. It counts as physicochemical. As for the experimental part:
Differences in hygroscopicity (moisture uptake) of the various forms of a solid material provided a measure of their relative stability at increasing relative humidity. Moisture sorption isotherms of small samples were obtained using a DVS-1 system from Surface Measurement Systems (London, UK); this instrument is suitable for use with as little as a few milligrams of sample, with an accuracy of 0.1 μg. The following humidity profile was applied: The relative humidity was cycled from 45% to 95% (sorption), back to 0% (desorption) and to 45%, at a constant temperature of 25° C. […] Weight equilibration per step was set with a minimum holding time of 1 hour. At the end of the DVS experiments, the recovered solid material was measured by HT-XRPD. Compound 1-dihydrochloride monohydrate was analyzed by dynamic vapor sorption (FIG. 6). The material was subjected to an isothermal desorption/sorption profile starting at 45%-95%-0%-45% relative humidity levels (step 5% at low relative humidity (RH)) at 25° C. The temperature was maintained constant at approximately 25° C. for the duration of the experiment. […] It can be seen that the mass uptake is rather small and that at high humidity level Compound 1-dihydrochloride remained as Form 1. This is confirmed by the mass stability and the VH-XRPD experiment conducted (see FIG. 7). […]

A short description of a further data set: DSC analysis of Form 1. It counts as physicochemical. To be noted: DSC trace. As for the experimental part:
Melting properties were obtained from DSC thermograms, recorded with a heat flux DSC822e instrument (Mettler-Toledo GmbH, Switzerland). The DSC822e was calibrated for temperature and enthalpy with a small piece of indium (melting point at 156.6 C; ΔHf=28.45 J·g−1). Samples were sealed in standard 40 μl aluminum pans, pin-holed and heated in the DSC from 25° C. to 300° C., at a heating rate of 10° C. min-1. Dry N2 gas, at a flow rate of 50 ml min−1 was used to purge the DSC equipment during measurement.
This event corresponds to the onset of dehydration of the monohydrate. This dehydration process is followed by the decomposition of the compound at about 290° C. signaled by a large endothermic event. It is concluded from this experiment that Form 1 is stable to elevated temperature, up to approximately 50° C.

Data set [2] is described as follows: Physical stability of Compound 1-dihydrochloride at four temperature/RH conditions. It counts as physicochemical. To be noted: four temperature/RH conditions, 4 weeks. How it is done: A physical stability study of Compound 1-dihydrochloride (mixture of Form 1 and Form 2) was conducted. A solid sample of Compound 1-dihydrochloride was incubated under four relative humidity and temperature conditions: 5° C./ambient RH, 25° C./60% RH, 30° C./65% RH and 40° C./75% RH. At regular intervals, the compound was analyzed by HR-XRPD and TGMS. […] The water content is in line with the monohydrate nature of Compound 1-dihydrochloride Form 1. The TGMS analyses recorded for the 2 weeks and 1-month incubation is also along the 3.8% of water (1 molecule of water per molecule of API).

Data set [3] in a line: Aqueous solubility as a function of pH (phosphate buffers, HPLC-UV). It counts as physicochemical. The settings on record: aqueous buffer, thermodynamic from solid; for solubility at 4 h: read-out: Conc. (mg/ml) 4 hours; for solubility thermodynamic at 24 h: read-out: Conc. (mg/ml) 24 hours. As for the experimental part: A known amount of Compound 1 was weighed directly into 5 ml vials and 1 ml of each phosphate buffer was added; the solutions obtained were kept at controlled temperature (25° C.) and magnetically stirred up to 24 hours. Aliquots of obtained suspensions or solutions were centrifuged (14000 rpm 10 minutes) and withdrawn at two predefined time points (4 hours and 24 hours) appropriately diluted and analyzed by HPLC-UV using the analytical method parameters summarized in the Table 9.

Data set [4] can be described thus: Variable humidity XRPD analysis. It counts as physicochemical. The settings on record: VH-XRPD, sorption; dihydrochloride. How it is done:
To confirm the hypothesis of a solid form change between 40% and 0% relative humidity levels a variable humidity XRPD (VH-XRPD) analysis was performed. The sample was subjected to a humidity profile of 45-75-20-15-10-30-35-45% relative humidity levels at 30° C. At each step, two diffractograms were recorded. The first diffractogram was recorded when the target humidity was reached and the second after the sample had equilibrated for 1 hour at each humidity level. […] The most intense peaks of Form 1 (dihydrochloride monohydrate) are in the range between 9.5 and 24.5° 2θ.
The measured RH level and the kind of ongoing RH variation step (sorption or desorption) is found on the right hand side. […] Upon desorption, the material was converted between 20% and 15% relative humidity to Form 2, the anhydrous form. Upon sorption, Form 2 converted back to Form 1 between 30% and 35% relative humidity.

Data set [5] in a line: In vitro human serum protein binding. It counts as in vitro ADME. To be noted: human. The text has this:
(§1) The results from in vitro and in vivo nonclinical PK/PD studies, the human PK data collected in the Phase 1 Study, and human plasma binding data were used to determine human therapeutic doses required for PK/PD target attainment.

The next data set deals with human serum protein. Nature of the data set: In vitro human serum protein binding. It counts as in vitro ADME.
Description: as §1

Data set [6] in a line: Polymorph and hydrate screen: physical stability of solid forms (AAC, drying). To be noted: 40° C. and 75% RH for 2 days. It counts as physicochemical. How it is done:
The solids obtained from the various crystallization experiments were analyzed by High Throughput XRPD (HT-XRPD). If relevant, the mother liquors were allowed to evaporate completely, and the remaining solids were analyzed by HT-XRPD. Subsequently, all solids were exposed to accelerated aging conditions for 48 hours at 40° C. and 75% RH (AAC).
From the polymorph screen, four novel diffractograms were identified in addition to the two known forms of Compound 1-dihydrochloride, Form 1 and Form 2. Form 1 was the most abundant solid form found in this polymorph screen. The novel diffractograms were designated Forms 3, 4, 5 and 6. All these forms were found with low frequency and were poorly crystalline. […] The HT-XRPD patterns of the new Forms 3, 4, 5 and 6 are shown in FIG. 12, FIG. 13, FIG. 14, and FIG. 15, respectively.
After completion of the equilibration time, the remaining solids were analyzed by HT-XRPD dry under ambient conditions and dried under vacuum. The mother liquors were analyzed by Karl Fisher titration for water content determination. […] The solutions from these experiments were evaporated under vacuum (200 mBar) and the obtained dried solids analyzed by HT-XRPD. All the solids were then exposed to 40° C. and 75% RH for two days.

Data set [7] can be described thus: Human pharmacokinetic and PK/PD target attainment estimates. It counts as in vivo.
Description: as §1

The nature of data set [8]: Stability of aqueous solutions of combination formulation at pH 5.0. It counts as physicochemical. To be noted: pH 5.0 at 25° C., 24 hours.

As for `Cl.Cl.NCCN[C@H]1CC[C@H](CC(=O)N[C@H]2Cc3cccc(C(=O)O)c3OB2O)CC1` [Form 1, (R)-3-(2-(trans-4-(2-aminoethylamino)cyclohexyl)acetamido)-2-hydroxy-3,4-dihydro-2H-benzo[e][1,2]oxaborinine-8-carboxylic acid dihydrochloride], the “Mass uptake on exposure to increasing relative humidity” value in [1] (DVS sorption 45% RH to 95%) is on record as “rather small”. Also, the “Mass loss on desorption” value in data set [1] (DVS, exposure to 10, 5, and 0% RH, transformation to Form 2) is listed as “approximately 4%”. For the same molecule, in “DSC analysis of Form 1”, the “Temperature up to which the form is stable (onset of dehydration)” value is “approximately 50 °C”. Besides, the “Physical stability and hygroscopicity under the tested conditions” value in data set [2] is “physically stable and non-hygroscopic”. Also, the solubility at 4 h was more than 143 mg/mL in data set [3] (Phosphate Buffer pH 4, pH (4 h) 3.9, 25° C.); more than 135 mg/mL in data set [3] (Phosphate Buffer pH 5, pH (4 h) 4.9, 25° C.); more than 135 mg/mL in data set [3] (Phosphate Buffer pH 6, pH (4 h) 6.2, 25° C.); more than 133 mg/mL in data set [3] (Phosphate Buffer pH 7, pH (4 h) 7.1, 25° C.); more than 127 mg/mL in data set [3] (Phosphate Buffer pH 8, pH (4 h) 8.1, 25° C.); more than 109 mg/mL in data set [3] (Phosphate Buffer pH 9, pH (4 h) 8.7, 25° C.). For the same molecule, the solubility thermodynamic at 24 h in data set [3] (Phosphate Buffer pH 4, pH (24 h) 3.9, 25° C.) was 133 mg/mL; in data set [3] (Phosphate Buffer pH 5, pH (24 h) 4.9, 25° C.) it was 107 mg/mL; in data set [3] (Phosphate Buffer pH 6, pH (24 h) 6.2, 25° C.) it was 102 mg/mL; in data set [3] (Phosphate Buffer pH 7, pH (24 h) 7.0, 25° C.), 87.8 mg/mL; in data set [3] (Phosphate Buffer pH 8, pH (24 h) 8.1, 25° C.), 68.3 mg/mL; in [3] (Phosphate Buffer pH 9, pH (24 h) 8.9, 25° C.) it was 61.4 mg/mL.

With `Cl.Cl.NCCN[C@H]1CC[C@H](CC(=O)N[C@H]2Cc3cccc(C(=O)O)c3OB2O)CC1` [Form 2, (R)-3-(2-(trans-4-(2-aminoethylamino)cyclohexyl)acetamido)-2-hydroxy-3,4-dihydro-2H-benzo[e][1,2]oxaborinine-8-carboxylic acid dihydrochloride], the “Relative humidity at which Form 2 converts to Form 1” value in data set [4] is 25-35 % RH.

For the molecule `NCCN[C@H]1CC[C@H](CC(=O)N[C@H]2Cc3cccc(C(=O)O)c3OB2O)CC1` [Compound 1, (R)-3-(2-(trans-4-(2-aminoethylamino)cyclohexyl)acetamido)-2-hydroxy-3,4-dihydro-2H-benzo[e][1,2]oxaborinine-8-carboxylic acid], the fraction unbound (in general, the share of the substance not bound to proteins or other matrix) in data set [5] is 0.63. In the data set on human serum protein, this molecule showed a free fraction of 63%. In addition, in [6], the “Physical stability upon exposure to AAC” value is “Stable”. For the same molecule, the “Total AUC0-24” value in [7] (Dose Level 250 (q8 hr)) is 123 µg·h/mL; in data set [7] (Dose Level 500 (q8 hr)) it was 248 µg·h/mL. The fAUC0-24 is 77 µg·h/mL in [7] (Dose Level 250 (q8 hr)) and 156 µg·h/mL in [7] (Dose Level 500 (q8 hr)). Moreover, in [8], the “% present, Compound 1” value was determined as 100%.
